Assay results as given in US20230330254A1 (Regeneron Pharmaceuticals, Inc., priority 2022, published 2023).
Like-named read-outs stand apart in the source and are kept apart here. Where a SMILES comes first, the peptide text is derived from it. [ ]: non-standard residue; d: D form. The star is where a group is joined. Bip(2'-Et,4'-O(CH2)4NH2) = CCc1cc(OCCCCN)ccc1-c1ccc(C[C@H](N)C(=O)O)cc1; Malonyl(2,2-Me2,histaminyl) = CC(C)(C(=O)NCCc1cnc[nH]1)C(=O)*; Nva(5-(3,5-Me2Ph)) = Cc1cc(C)cc(CCC[C@H](N)C(=O)O)c1; Ala(1H-tetrazol-5-yl) = N[C@@H](Cc1nnn[nH]1)C(=O)O; αMePhe(2-F) = C[C@](N)(Cc1ccccc1F)C(=O)O; Desaminohistidyl = O=C(CCc1c[nH]cn1)*; X2 = CC(C)(C(N)=O)C(=O)*; Aib = CC(C)(N)C(=O)O; NHPh = c1ccc(N*)cc1

Columns and labels:
human GLP1R [1] = target: T1, human GLP1R (Homo sapiens, UniProt P43220); assay: Luciferase reporter assay, HEK293/CRE-Luc/hGLP1R cells (Example 11); assay type: cell-based; set-up: engineered to express full-length human GLP1R, cynomolgus GLP1R; expressed in transfected cells; host or cells: HEK293/CRE-Luc; details: Table 11; Experiment A
T1 sequence (P43220 24-463): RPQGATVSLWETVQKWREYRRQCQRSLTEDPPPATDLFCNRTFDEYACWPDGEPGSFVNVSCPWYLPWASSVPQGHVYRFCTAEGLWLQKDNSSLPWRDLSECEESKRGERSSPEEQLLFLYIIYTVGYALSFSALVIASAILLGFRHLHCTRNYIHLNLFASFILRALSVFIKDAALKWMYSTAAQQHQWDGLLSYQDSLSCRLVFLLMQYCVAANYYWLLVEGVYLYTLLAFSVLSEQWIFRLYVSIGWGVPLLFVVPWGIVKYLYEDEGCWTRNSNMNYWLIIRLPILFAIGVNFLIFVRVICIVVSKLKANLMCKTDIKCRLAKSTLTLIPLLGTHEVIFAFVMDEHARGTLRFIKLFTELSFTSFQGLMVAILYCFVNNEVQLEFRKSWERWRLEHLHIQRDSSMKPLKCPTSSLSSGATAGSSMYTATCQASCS
Text: (§1) To test the activity of GLP1R agonist payloads, GLP1R agonist linker-payloads (LPs), and anti-GLP1R antibody tethered drug conjugates (ATDCs) of the disclosure, a cell-based cAMP responsive luciferase reporter assay was developed. To generate the assay cell line, the firefly luciferase gene was placed under the control of a cAMP response element (CRE) located upstream of a minimal promoter and transfected into HEK293 cells and referred to herein as HEK293/CRE-Luc cells.
(§2) Three-fold serial dilutions of free payloads or LPs were prepared in 100% DMSO, transferred to fresh assay media, and added to the cells at a final constant DMSO concentration of 0.2%. The last well in the plate served as a blank control containing only the assay media and 0.2% DMSO (untreated well) and was plotted as a continuation of the 3-fold serial dilution. Four to six hours later, luciferase activity was determined after the addition of One-Glo™ reagent (Promega, Cat #E6130) to each well. Relative light units (RLUs) were measured on an Envision luminometer (PerkinElmer) and EC50 values were determined using a four-parameter logistic equation over a 12-point dose response curve (GraphPad Prism). The signal to noise (S/N) was determined by taking the ratio of the highest RLU on the dose response curve to the RLU in the untreated wells.
GLP1R agonist linker payloads were conjugated to anti-hGLP1R antibodies via N-terminal heavy or light chain Q tags. Several resulting anti-GLP1R antibody tethered drug conjugates (ATDCs) were tested for activity in the HEK293/CRE-Luc/hGLP1R reporter assay as described above for the free GLP1R payload and linker-payload agonists.

[2] = Plasma stability of payloads and linker-payloads, human plasma; assay type: in vitro ADME; details: plasma, 2 μM, 37° C., read-out: Human plasma stability assay T½ (converted)
Procedure: The plasma stability of payloads and linker payloads of the disclosure were measured. For the assay, pooled frozen plasma (human, mouse or monkey) was thawed in cold water or a 37° C. water bath prior to experiment. Plasma was centrifuged at 4000 rpm for 5 min if any clots were observed, they were subsequently removed. If required, the pH was adjusted to 7.4±0.1. For the preparation of compounds and positive controls, a 1 mM intermediate solution was prepared by diluting 10 μL of their stock solution with 90 μL DMSO; a 1 mM intermediate solution of the positive control (Propantheline) was prepared by diluting 10 μL of its stock solution with 90 μL ultrapure water. […] 98 μL of plasma was spiked with 2 μL of dosing solution (100 μM) to achieve the final concentration of 2 μM in duplicate. Samples were then incubated at 37° C. in a water bath. […] At each time point, 400 μL of stop solution (200 ng/mL tolbutamide plus 200 ng/mL labetalol in 50% ACN/MeOH) was added to precipitate protein and mixed thoroughly. Sample plates were then centrifuged at 4,000 rpm for 10 min. An aliquot of supernatant (50 μL) was transferred from each well and mixed with 100 μL ultrapure water. The samples were then shaken at 800 rpm for approximately 10 min before submitting for LC-MS/MS analysis.

human GLP1R [3] = target: T1, human GLP1R; assay: Luciferase reporter assay, HEK293/CRE-Luc/hGLP1R (Example 17); assay type: cell-based; set-up: engineered to express full-length human GLP1R, cynomolgus GLP1R; expressed in transfected cells; host or cells: HEK293/CRE-Luc; details: HEK293/CRE-Luc/hGLP1R; for S/N: highest RLU / RLU of untreated wells; for EC50: payloads and linker-payloads, experiments A-E, M2361 repeated in each, read-out: EC50; for Relative Potency (% M2361 EC50) / Relative Signal:Noise (% M2361): relative to M2361 of the same experiment
Summary of the method: (§3)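 HEK293 cells carrying a CRE-driven firefly luciferase reporter were exposed to 3-fold serial dilutions of payloads or linker-payloads (12 points, 0.2% DMSO final) for 4–6 h, then luminescence was read. EC50 came from a four-parameter logistic fit; S/N is top RLU over untreated wells, and relative potency and S/N are referenced to M2361.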

[4] = Plasma stability of payloads (t½)
HEK293/CRE-Luc cells [5] = assay: Luciferase reporter assay, HEK293/CRE-Luc cells without hGLP1R (Example 11); assay type: cell-based, human; details: Table 11; Experiment A; no hGLP1R expression
Text: as §1, §2

HEK293/CRE-Luc cells [6] = assay: Luciferase reporter assay, HEK293/CRE-Luc cells without GLP1R (Example 17); assay type: cell-based, human; details: HEK293/CRE-Luc cells without hGLP1R, payloads and linker-payloads; for EC50: read-out: EC50
Summary of the method: as §3

human GLP1R [7] = target: T1, human GLP1R; assay: Human GLP1R cAMP accumulation assay; assay type: cell-based; set-up: HEK293 cells over-expressing full length human GLP-1R were utilized; expressed in transfected cells; host or cells: HEK293 (HEK293/hGLP1R); details: HEK293/hGLP1R cells; Table 4; read-out: cAMP EC50
Summary of the method: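 cAMP accumulation measured after 30 min at 23° C, with 500 μM IBMX in HEPES-buffered HBSS plus 0.1% BSA, in HEK293 cells expressing full-length hGLP-1R. Levels read by D2-cAMP/antibody immunoassay via standard curve, scaled between low and high controls. EC50 fitted four-parameter over a 10-point curve.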

[8] = pH 7.4, tested time A (1 day per footnote)
[9] = pH 7.4, tested time B (2 hrs per footnote)

Compound | EC50 (human GLP1R [1]) [nM] | HEK293/CRE-LUC/hGLP1R Relative Potency (% P8 EC50) (human GLP1R [1]) [%] | HEK293/CRE-LUC/hGLP1R S/N (human GLP1R [1]) | half-life at 2 µM [2, 8] [h] | S/N (human GLP1R [3]) | EC50 (human GLP1R [3]) [nM] | Relative Potency (% M2361 EC50) (human GLP1R [3]) [%] | Relative Signal:Noise (% M2361) (human GLP1R [3]) [%] | Plasma stability t½ [4] [h] | EC50 (HEK293/CRE-Luc cells [5]) [nM] | HEK293/CRE-LUC S/N (HEK293/CRE-Luc cells [5]) | S/N (HEK293/CRE-Luc cells [6]) | EC50 (HEK293/CRE-Luc cells [6]) [nM] | EC50 (human GLP1R [7]) [nM] | half-life at 2 µM [2, 9] [h] | half-life at 2 µM ([2]; pH 7.4, tested time C (3 days)) [h]
CCc1cc(OCCCCN)ccc1-c1ccc(C[C@H](NC(=O)[C@H](CC(=O)O)NC(=O)[C@H](CO)NC(=O)[C@@H](NC(=O)[C@](C)(Cc2ccccc2F)NC(=O)[C@@H](NC(=O)CNC(=O)[C@H](Cc2nn[nH]n2)NC(=O)C(C)(C)C(N)=O)[C@@H](C)O)[C@@H](C)O)C(=O)N[C@@H](CCCc2cc(C)cc(C)c2)C(N)=O)cc1 [P4] (X2-[Ala(1H-tetrazol-5-yl)]GT[αMePhe(2-F)]TSD[Bip(2'-Et,4'-O(CH2)4NH2)][Nva(5-(3,5-Me2Ph))]-NH2) | 0.0837 | 6.3 | 66.9 | > 57.8 | 66.9 | 0.0837 | 6.3 | 101.8 | >57.8 | > 200 | 1.6 | 1.6 | > 200 | 0.156 |  | 
CCc1cc(OCCCCN)ccc1-c1ccc(C[C@H](NC(=O)[C@H](CC(=O)O)NC(=O)[C@H](CO)NC(=O)[C@@H](NC(=O)[C@](C)(Cc2ccccc2F)NC(=O)[C@@H](NC(=O)CNC(=O)[C@H](Cc2nn[nH]n2)NC(=O)[C@H](C)NC(=O)[C@@H](N)Cc2cnc[nH]2)[C@@H](C)O)[C@@H](C)O)C(=O)N[C@@H](CCCc2cc(C)cc(C)c2)C(N)=O)cc1 [P10] (H-HA[Ala(1H-tetrazol-5-yl)]GT[αMePhe(2-F)]TSD[Bip(2'-Et,4'-O(CH2)4NH2)][Nva(5-(3,5-Me2Ph))]-NH2) | 0.014 | 38.0 | 45.1 |  | 45.1 | 0.014 | 38.0 | 68.6 |  | > 200 | 1.2 | 1.2 | > 200 | 0.047 | 1.83 | 
CCc1cc(OCCCCN)ccc1-c1ccc(C[C@H](NC(=O)[C@H](CC(=O)O)NC(=O)[C@H](CO)NC(=O)[C@@H](NC(=O)[C@](C)(Cc2ccccc2F)NC(=O)[C@@H](NC(=O)CNC(=O)[C@@H](N)Cc2nn[nH]n2)[C@@H](C)O)[C@@H](C)O)C(=O)N[C@@H](CCCc2cc(C)cc(C)c2)C(N)=O)cc1 [P2] |  |  |  |  | 306.2 | 19 | 0.1 | 93.4 | 10.7 |  |  |  |  |  | 10.7 | 
CCc1cc(OCCCCN)ccc1-c1ccc(C[C@H](NC(=O)[C@H](CC(=O)O)NC(=O)[C@H](CO)NC(=O)[C@@H](NC(=O)[C@](C)(Cc2ccccc2F)NC(=O)[C@@H](NC(=O)CNC(=O)[C@H](Cc2nn[nH]n2)NC(=O)CNC(=O)CCc2c[nH]cn2)[C@@H](C)O)[C@@H](C)O)C(=O)N[C@@H](CCCc2cc(C)cc(C)c2)C(N)=O)cc1 [P12] (Desaminohistidyl-G[Ala(1H-tetrazol-5-yl)]GT[αMePhe(2-F)]TSD[Bip(2'-Et,4'-O(CH2)4NH2)][Nva(5-(3,5-Me2Ph))]-NH2) | 0.0114 |  |  | > 57.8 |  | 0.0114 |  |  | >57.8 |  |  |  |  | 0.039 |  | 
CCc1cc(OCCCCn2cc(COCCOCCOCCOCCOCCOCCOCCOCCNC(=O)CCC(=O)N3Cc4ccccc4-c4nn[nH]c4-c4ccccc43)nn2)ccc1-c1ccc(C[C@H](NC(=O)[C@H](CC(=O)O)NC(=O)[C@H](CO)NC(=O)[C@@H](NC(=O)C(C)(Cc2ccccc2F)NC(=O)[C@@H](NC(=O)CNC(=O)[C@H](Cc2nn[nH]n2)NC(=O)C(C)(C)C(=O)NCCc2cnc[nH]2)[C@@H](C)O)[C@@H](C)O)C(=O)N[C@@H](CCCc2cc(C)cc(C)c2)C(N)=O)cc1 (stereo partly shown) [LP28, triazole-DIBAC-suc-PEG8-triazole-P8] |  |  |  |  |  |  |  |  |  |  |  |  |  |  |  | > 173
CCc1cc(OCCCCN)ccc1-c1ccc(C[C@H](NC(=O)[C@H](CC(=O)O)NC(=O)[C@H](CO)NC(=O)[C@@H](NC(=O)[C@](C)(Cc2ccccc2F)NC(=O)[C@@H](NC(=O)CNC(=O)[C@H](Cc2nn[nH]n2)NC(=O)C(C)(C)NC(=O)[C@@H](N)Cc2ccc(O)cc2)[C@@H](C)O)[C@@H](C)O)C(=O)N[C@@H](CCCc2cc(C)cc(C)c2)C(N)=O)cc1 [P19] (H-Y[Aib][Ala(1H-tetrazol-5-yl)]GT[αMePhe(2-F)]TSD[Bip(2'-Et,4'-O(CH2)4NH2)][Nva(5-(3,5-Me2Ph))]-NH2) |  |  |  | > 57.8 | 78.5 | 0.0535 | 9.9 | 119.4 | >57.8 |  |  | 1.0 | > 200 | 0.156 |  | 
CCc1cc(OCCCCN)ccc1-c1ccc(C[C@H](NC(=O)[C@H](CC(=O)O)NC(=O)[C@H](CO)NC(=O)[C@@H](NC(=O)[C@](C)(Cc2ccccc2F)NC(=O)[C@@H](NC(=O)CNC(=O)[C@H](Cc2nn[nH]n2)NC(=O)C(C)(C)C(=O)NCCc2cnc[nH]2)[C@@H](C)O)[C@@H](C)O)C(=O)N[C@@H](CCCc2cc(C)cc(C)c2)C(=O)Nc2ccccc2)cc1 [P23] ({Malonyl(2,2-Me2,histaminyl)}-[Ala(1H-tetrazol-5-yl)]GT[αMePhe(2-F)]TSD[Bip(2'-Et,4'-O(CH2)4NH2)][Nva(5-(3,5-Me2Ph))]-NHPh) | 0.00515 | 103.0 | 57.1 |  | 57.1 | 0.00515 | 103.0 | 86.9 |  | > 200 | 1.6 | 1.6 | > 200 | 0.198 | 10.7 | 
